{
  "source": "patent US20130281512A1",
  "about": "“AGENTS FOR TREATING DISORDERS INVOLVING MODULATION OF RYANODINE RECEPTORS” (LES LABORATOIRES SERVIER, priority 2012, published 2013)",
  "key": {"[1]": {"molecular_target": "T1, PKA-phosphorylated RyR2 (Homo sapiens, UniProt Q92736)", "T1 construct": "Cardiac SR membranes were prepared as previously described; from tissue; host or cells: cardiac sarcoplasmic reticulum (heart muscle microsomes)", "T1 sequence (Q92736 whole entry)": "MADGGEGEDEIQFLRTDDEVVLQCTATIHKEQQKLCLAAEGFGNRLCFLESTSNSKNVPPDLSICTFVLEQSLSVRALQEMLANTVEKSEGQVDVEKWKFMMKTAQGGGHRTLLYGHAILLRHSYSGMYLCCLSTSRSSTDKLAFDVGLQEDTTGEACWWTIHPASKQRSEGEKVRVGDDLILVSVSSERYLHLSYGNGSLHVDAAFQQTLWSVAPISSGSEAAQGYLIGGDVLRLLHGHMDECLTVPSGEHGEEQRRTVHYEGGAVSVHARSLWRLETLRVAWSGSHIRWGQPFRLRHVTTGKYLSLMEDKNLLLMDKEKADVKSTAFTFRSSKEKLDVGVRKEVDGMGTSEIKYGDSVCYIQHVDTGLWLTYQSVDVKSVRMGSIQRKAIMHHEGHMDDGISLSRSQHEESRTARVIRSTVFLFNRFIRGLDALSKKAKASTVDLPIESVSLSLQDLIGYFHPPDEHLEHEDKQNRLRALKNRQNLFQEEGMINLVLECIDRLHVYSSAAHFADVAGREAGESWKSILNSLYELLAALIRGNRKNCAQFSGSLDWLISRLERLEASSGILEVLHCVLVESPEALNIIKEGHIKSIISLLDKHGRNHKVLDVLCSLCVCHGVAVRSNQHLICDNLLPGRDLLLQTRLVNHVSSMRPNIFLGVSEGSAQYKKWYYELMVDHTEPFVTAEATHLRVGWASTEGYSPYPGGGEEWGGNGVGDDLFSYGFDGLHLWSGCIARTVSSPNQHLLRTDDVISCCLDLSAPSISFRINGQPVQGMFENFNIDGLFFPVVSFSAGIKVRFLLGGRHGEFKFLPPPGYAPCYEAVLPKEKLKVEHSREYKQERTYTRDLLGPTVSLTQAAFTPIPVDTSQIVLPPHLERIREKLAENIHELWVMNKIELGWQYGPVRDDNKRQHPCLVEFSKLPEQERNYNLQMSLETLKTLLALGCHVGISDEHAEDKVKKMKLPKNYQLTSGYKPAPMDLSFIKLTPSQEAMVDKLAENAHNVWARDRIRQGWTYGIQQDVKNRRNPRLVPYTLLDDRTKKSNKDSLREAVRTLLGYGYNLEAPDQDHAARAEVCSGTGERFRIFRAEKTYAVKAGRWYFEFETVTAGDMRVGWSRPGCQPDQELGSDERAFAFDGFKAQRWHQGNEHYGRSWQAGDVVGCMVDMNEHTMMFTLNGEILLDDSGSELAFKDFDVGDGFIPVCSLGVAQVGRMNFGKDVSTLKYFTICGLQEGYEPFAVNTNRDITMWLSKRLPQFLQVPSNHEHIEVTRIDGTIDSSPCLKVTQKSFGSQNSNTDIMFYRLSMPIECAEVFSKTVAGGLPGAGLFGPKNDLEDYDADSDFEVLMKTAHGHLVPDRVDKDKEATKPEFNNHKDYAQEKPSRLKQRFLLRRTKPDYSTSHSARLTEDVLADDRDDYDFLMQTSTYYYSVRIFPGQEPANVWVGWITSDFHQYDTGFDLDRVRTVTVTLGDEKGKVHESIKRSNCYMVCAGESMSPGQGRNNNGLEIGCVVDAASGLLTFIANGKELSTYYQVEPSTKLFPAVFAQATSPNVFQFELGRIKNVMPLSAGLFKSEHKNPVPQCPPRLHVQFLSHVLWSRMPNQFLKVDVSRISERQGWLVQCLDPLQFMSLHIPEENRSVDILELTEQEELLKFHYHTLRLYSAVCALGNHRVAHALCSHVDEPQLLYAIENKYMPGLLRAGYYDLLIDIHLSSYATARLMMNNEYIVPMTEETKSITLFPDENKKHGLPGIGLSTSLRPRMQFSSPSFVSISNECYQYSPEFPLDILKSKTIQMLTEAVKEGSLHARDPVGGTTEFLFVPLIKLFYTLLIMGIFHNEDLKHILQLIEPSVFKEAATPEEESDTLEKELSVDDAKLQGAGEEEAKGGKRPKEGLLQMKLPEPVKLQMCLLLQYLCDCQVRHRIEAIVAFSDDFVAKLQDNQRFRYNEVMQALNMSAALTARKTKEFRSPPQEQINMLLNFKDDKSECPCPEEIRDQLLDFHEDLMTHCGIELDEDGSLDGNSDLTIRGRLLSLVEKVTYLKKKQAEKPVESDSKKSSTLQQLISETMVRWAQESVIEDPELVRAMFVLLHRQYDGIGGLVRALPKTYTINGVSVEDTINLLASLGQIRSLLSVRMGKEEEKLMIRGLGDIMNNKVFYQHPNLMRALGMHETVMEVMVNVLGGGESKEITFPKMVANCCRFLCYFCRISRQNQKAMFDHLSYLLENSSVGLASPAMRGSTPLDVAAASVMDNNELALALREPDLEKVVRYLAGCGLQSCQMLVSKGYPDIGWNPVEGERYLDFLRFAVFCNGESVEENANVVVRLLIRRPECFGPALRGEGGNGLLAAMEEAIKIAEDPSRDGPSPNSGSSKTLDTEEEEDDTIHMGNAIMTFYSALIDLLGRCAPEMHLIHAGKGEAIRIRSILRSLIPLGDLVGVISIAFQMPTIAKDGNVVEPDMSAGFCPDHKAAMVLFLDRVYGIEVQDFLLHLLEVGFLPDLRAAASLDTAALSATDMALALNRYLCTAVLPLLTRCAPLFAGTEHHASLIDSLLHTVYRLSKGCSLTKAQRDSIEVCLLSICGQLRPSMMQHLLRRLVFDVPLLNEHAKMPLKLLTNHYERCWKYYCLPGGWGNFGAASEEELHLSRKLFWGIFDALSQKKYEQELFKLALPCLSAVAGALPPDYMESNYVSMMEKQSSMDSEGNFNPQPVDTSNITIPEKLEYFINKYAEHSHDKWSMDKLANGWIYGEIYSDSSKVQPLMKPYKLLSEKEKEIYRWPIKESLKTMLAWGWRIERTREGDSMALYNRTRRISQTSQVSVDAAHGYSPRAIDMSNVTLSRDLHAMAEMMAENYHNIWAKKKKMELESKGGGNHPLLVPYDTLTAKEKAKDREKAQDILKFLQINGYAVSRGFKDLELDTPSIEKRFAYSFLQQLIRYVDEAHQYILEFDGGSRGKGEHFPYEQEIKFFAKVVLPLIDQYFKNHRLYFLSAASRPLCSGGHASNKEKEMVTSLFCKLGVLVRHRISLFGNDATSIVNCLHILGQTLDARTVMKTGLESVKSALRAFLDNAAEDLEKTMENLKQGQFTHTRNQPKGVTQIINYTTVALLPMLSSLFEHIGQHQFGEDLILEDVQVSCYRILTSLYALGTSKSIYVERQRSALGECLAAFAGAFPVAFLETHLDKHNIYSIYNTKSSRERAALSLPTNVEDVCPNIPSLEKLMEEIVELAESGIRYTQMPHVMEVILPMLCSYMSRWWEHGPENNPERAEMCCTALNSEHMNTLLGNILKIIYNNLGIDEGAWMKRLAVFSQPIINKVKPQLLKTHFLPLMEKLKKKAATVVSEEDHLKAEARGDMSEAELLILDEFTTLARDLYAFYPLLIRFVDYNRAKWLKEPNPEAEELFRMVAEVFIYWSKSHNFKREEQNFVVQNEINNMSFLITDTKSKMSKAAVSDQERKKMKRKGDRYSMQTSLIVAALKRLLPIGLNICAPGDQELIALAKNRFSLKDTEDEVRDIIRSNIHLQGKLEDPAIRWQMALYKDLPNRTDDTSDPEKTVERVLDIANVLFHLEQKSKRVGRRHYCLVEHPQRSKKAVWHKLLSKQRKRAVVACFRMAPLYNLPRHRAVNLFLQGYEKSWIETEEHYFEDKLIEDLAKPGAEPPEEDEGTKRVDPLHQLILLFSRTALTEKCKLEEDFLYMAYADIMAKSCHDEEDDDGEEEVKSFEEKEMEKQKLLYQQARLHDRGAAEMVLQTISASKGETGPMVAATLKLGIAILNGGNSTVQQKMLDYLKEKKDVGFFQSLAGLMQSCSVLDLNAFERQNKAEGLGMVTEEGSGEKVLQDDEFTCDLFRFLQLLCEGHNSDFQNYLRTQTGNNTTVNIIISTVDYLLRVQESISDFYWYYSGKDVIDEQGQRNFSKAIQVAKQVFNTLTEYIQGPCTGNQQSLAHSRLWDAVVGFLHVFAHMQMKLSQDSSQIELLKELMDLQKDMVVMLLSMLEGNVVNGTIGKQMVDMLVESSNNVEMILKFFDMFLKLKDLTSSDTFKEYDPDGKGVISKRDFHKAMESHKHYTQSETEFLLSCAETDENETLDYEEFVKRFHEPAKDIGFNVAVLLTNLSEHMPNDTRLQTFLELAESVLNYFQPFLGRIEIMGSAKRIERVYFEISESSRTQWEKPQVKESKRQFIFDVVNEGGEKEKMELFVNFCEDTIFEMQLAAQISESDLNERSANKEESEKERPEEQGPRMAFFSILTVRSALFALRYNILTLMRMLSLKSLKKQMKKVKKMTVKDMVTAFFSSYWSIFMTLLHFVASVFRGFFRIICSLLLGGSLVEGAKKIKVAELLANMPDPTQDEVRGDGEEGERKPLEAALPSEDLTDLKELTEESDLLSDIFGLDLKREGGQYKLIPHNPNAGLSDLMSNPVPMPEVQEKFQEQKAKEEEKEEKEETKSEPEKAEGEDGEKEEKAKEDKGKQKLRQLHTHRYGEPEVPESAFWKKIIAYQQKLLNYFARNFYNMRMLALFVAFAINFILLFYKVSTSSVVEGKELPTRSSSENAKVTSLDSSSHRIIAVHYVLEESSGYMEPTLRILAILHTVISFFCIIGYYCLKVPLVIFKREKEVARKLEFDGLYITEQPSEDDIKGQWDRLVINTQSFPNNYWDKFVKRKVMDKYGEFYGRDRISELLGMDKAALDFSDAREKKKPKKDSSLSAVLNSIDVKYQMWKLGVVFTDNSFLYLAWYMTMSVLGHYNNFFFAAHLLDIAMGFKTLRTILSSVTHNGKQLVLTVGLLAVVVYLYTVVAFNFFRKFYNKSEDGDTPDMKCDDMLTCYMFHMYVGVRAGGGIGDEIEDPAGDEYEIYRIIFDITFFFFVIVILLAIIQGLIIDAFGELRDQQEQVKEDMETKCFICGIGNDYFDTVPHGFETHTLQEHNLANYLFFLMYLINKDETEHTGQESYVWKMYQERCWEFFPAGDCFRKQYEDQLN", "T1 sequence (P68106 whole entry partner)": "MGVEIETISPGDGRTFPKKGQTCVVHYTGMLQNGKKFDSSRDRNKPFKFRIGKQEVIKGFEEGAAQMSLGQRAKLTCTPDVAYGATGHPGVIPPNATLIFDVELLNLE", "experiment": "Calstabin2 rebinding assay: binding of calstabin2 to PKA-phosphorylated RyR2 (cardiac SR, immunoblot)", "conditions": "100 nM compound; immunoblot with calstabin2 antibody", "method": "Cardiac SR membranes were prepared as previously described (Marx et al., 2000; Kaftan et al., Circ. Res., 1996, 78:990-97). Immunoblotting of microsomes (50 μg) was performed as described, with anti-calstabin antibody (1:1,000) (Jayaraman et al., J. Biol. Chem., 1992, 267:9474-77) for 1 hr at room temperature (Reiken et al., Circulation, 107:2459-66, 2003). After incubation with HRP-labeled anti-rabbit IgG (1:5,000 dilution; Transduction Laboratories, Lexington, Ky.), the blots were developed using ECL (Amersham Pharmacia, Piscataway, N.J.) and detected on x-ray film, or exposed to secondary antibodies labeled with infrared Dye and visualized on equipment from Li-Cor Biosciences (model Odyssey). Unless otherwise stated, compounds were tested at a concentration of 100 nM. A representative calstabin2 binding assay is presented below.\nA. PKA phosphorylation of cardiac sarcoplasmic reticulum (CSR)\nB. Reaction mixture was set up in 1.5 ml microfuge tube. 200 μg of cardiac SR were added to a reaction mix of kinase buffer, PKA and ATP to a final volume of 100 (Reaction mix below). ATP was added last to initiate the reaction.\n20 μl Sample (cardiac SR, 2 or 10 μg/μl) 10 μl=10× Kinase buffer (80 mM MgCl2, 100 mM EGTA, 500 mM Tris/PIPES), pH=7.0\n20 μl PKA (2units/ul) (Sigma # P2645)\n40 μl=distilled H2O • 1. The tubes were incubated at 30° C. for 30 minutes. • 2. The reaction mix was then transferred to 0.5 ml thick walled glass tubes. • 3. The glass tubes containing the reaction mix were centrifuged for 10 min at 50,000×g in Sorvall Centrifuge RCM120EX using S120AT3 rotor. Centrifugation at 50,000×g for 10 min is sufficient to isolate the microsomes. • 4. The resulting pellet was washed 4 times with binding buffer (10 mM Imidazol 300 mM Sucrose, pH=7.4). Each time 100111 of 1× binding buffer was added to the tube to wash the pellet. The pellet was resuspended by flushing up and down using the pipette tip. After the last spin 501.11 of binding buffer was added and the pellets from all tubes were pooled. The reaction was stored at −20° C. • 5. Phosphorylation was confirmed by separating approximately 10 μg of CSR by 6% Polyacylamide gel electrophoresis (PAGE) and analyzing the immunoblots for both total RyR (5029 Ab, 1:3000 dilution or Monoclonal Ab from Affinity Bioreagents, Cat # MA3-916, 1:2000 dilution) and PKA phosphorylated RyR2 (P2809 Ab, 1:10000 dilution). • 6. Aliquots can be stored at −80 C.\nC. Calstabin Rebinding Assay\n• 1. PKA-phosphorylated CSR (approximately 20 μg) was incubated with 250 nM Calstabin 2 in 100111 binding buffer (as described above) with or without compounds. • 2. […] Calstabin2 binding was detected with anti-FKBP (Jayaraman et al., J. Biol. Chem. 1992; 267:9474-77, 1:2000) primary antibody and appropriate secondary antibody."}, "[2]": {"experiment": "Metabolic stability in rat microsomes (% remaining)", "assay_type": "in vitro ADME", "method": "(§1) 0.1M Tris HCl buffer at pH 7.4 containing 5 mM EDTA.\n(§2) To a 50 mL falcon tube containing 2.79 mL of dilution buffer were added 0.429 mL of NADPH-regenerating soln. A and 0.079 mL of NADPH-regenerating soln. B […]\n(§3) […] A 50 mL falcon tube containing 3.32 mL of dilution buffer was prewarmed at 37° C. for 15 min. (at least 10 min.) 0.178 mL of microsome (24.6 mg/mL) were added to the prewarmed dilution buffer. The protein concentration of this microsome preparation was 1.25 mg/mL.\n(§4) Sample (Test Compound)—Original and Intermediate Stock Solutions:\n(§5) 100 μM intermediate solution of the test compound from the original stock solution were prepared using the dilution buffer. A 5 μM solution was prepared by diluting the 100 μM intermediate solution using dilution buffer.\n(§6) (The experiments were conducted in 1.5 mL eppendorf micro centrifuge tubes) 0 minutes incubation. Procedure: a. Add 100 μL of prewarmed microsomes b. Add 50 μL of 5 μM solution of the test compound. c. Add 500 μL of cold stop solution (ice cold Methanol) d. Add 100 μL of NADPH cofactor solution to the eppendorf. a. Vortex mix the eppendorf. […]\n(§7) b. Add 100 μL of NADPH cofactor solution to the eppendorf. c. Add 50 μL of 5 μM solution of the test compound. d. Add 100 μL of prewarmed microsomes e. Incubate the eppendorf at 37° C. 300 rpm for ‘t’ min. on a thermomixer. f. Remove the eppendorf from thermomixer g. Add 500 μL of cold stop solution (ice cold Methanol) h. Vortex mix the eppendorf.\n(§8) Both the ‘0’ and ‘t’ minutes incubated samples were centrifuged at 15, 000 rcf at 4° C. for 15 min. 500 μL of the supernatant solution was removed and subject it to LC/MS analysis (SIM—Selected Ion Monitoring) […]\n(§9) Results are expressed as % test compound remaining=(MS Area response of T min sample/MS Area response of ‘0’ min sample)*100. The MS area used is an average of duplicate injections.\n(§10) Time points=0, 15, 30 and 60 min. for each test compound\n(§11) 2 μM Imipramine—5 min. and 2 μM Imipramine—15 min. incubation was used as a positive control for the rat and mouse liver microsome stability experiments."}, "[3]": {"experiment": "Metabolic stability in mouse microsomes (% remaining)", "assay_type": "in vitro ADME", "method": "as §1, §2, §3, §4, §5, §6, §7, §8, §9, §10, §11"}},
  "data": [
    {"smiles": "COc1ccc2c(c1)CN(Cc1ccc(C(=O)O)cc1)CCS2", "note": "[Compound 1, 4-((7-Methoxy-2,3-dihydrobenzo[f][1,4]thiazepin-4(5H)-yl)methyl)benzoic acid]", "values": [
      {"measurement": "binding of calstabin2 to PKA-phosphorylated RyR2", "setting": "[1]", "value": "prevented the dissociation of calstabin2 from PKA-phosphorylated RyR2 and/or enhanced the (re)binding of calstabin2 to PKA-phosphorylated RyR"},
      {"measurement": "% remaining", "setting": "[2]; 15 min", "value": 54, "unit": "%"},
      {"measurement": "% remaining", "setting": "[2]; 30 min", "value": 17, "unit": "%"},
      {"measurement": "% remaining", "setting": "[2]; 1 h", "value": 2, "unit": "%"},
      {"measurement": "% remaining", "setting": "[3]; 15 min", "value": 99, "unit": "%"},
      {"measurement": "% remaining", "setting": "[3]; 30 min", "value": 98, "unit": "%"},
      {"measurement": "% remaining", "setting": "[3]; 1 h", "value": 82, "unit": "%"}
    ]}
  ]
}
